Assay type in all cases: cell-based
In data set [1] the target is T1, Peroxisome proliferator-activated receptor gamma (Homo sapiens, UniProt P37231).
T1 sequence (P37231 whole entry): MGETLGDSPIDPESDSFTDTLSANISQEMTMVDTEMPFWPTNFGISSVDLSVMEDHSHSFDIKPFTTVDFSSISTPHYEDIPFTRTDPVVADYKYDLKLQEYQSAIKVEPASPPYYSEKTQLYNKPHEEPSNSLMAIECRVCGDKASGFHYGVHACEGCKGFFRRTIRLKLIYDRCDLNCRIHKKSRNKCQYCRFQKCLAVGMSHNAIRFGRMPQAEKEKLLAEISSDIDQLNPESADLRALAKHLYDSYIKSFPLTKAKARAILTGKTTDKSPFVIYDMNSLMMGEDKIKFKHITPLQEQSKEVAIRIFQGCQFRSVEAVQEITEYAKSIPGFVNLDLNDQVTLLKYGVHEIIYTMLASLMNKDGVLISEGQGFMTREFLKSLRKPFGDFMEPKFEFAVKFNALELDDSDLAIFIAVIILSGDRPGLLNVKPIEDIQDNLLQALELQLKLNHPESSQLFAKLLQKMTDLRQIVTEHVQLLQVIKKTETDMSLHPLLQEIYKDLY
Briefly: (§1) Agonist activity at Gal4-fused human PPARgamma expressed in COS7 cells assessed as receptor transactivation at 10 uM measured after 24 hrs by luciferase/beta-galactosidase reporter gene assay relative to rosiglitazone. The following applies: cos7, 24 h, 10 µM. For orientation: Reporter assays use an easily measured gene product as a stand-in for the process of interest.

Data set [2] concerns the target T2, Peroxisome proliferator-activated receptor alpha (Homo sapiens) (UniProt Q07869).
T2 sequence (whole entry): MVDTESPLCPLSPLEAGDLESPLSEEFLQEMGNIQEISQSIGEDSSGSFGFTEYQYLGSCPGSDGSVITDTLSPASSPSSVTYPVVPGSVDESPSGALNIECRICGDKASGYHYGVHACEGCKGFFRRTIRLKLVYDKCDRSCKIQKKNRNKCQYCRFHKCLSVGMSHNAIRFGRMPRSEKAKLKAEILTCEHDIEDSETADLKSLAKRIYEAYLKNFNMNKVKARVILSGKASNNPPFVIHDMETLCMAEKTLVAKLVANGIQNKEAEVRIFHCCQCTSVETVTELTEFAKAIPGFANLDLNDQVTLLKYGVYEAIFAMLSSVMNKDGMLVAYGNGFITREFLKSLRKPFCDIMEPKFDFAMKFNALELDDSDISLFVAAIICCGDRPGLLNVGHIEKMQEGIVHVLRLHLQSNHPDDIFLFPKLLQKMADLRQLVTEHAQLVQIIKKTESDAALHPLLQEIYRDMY
In words: Agonist activity at Gal4-fused human PPARalpha expressed in COS7 cells assessed as receptor transactivation at 10 uM measured after 24 hrs by luciferase/beta-galactosidase reporter gene assay relative to WY-14643. Conditions: filed as agonist.

For another data set, the target named is T3, PPARgamma (Homo sapiens, UniProt P37231).
T3 sequence (P37231 whole entry): T1 sequence (P37231 whole entry)
Described as §1. The following applies: COS7 cells expressing Gal4-fused human PPARgamma, read-out: max activation.

The target in data set [3] is T4, Peroxisome proliferator-activated receptor gamma (Homo sapiens) (UniProt P37231).
T4 sequence (whole entry): T1 sequence (P37231 whole entry)
Briefly: Partial agonist activity at Gal4-fused human PPARgamma expressed in COS7 cells assessed as receptor transactivation at 10 uM measured after 24 hrs by luciferase/beta-galactosidase reporter gene assay. The following applies: filed as partial agonist.

SMILES strings stand for the structures. The source made the active and inactive calls. No cut-off for these calls is given here.

The source of these data is ChEMBL document CHEMBL5143542, “Synthesis and biological studies of "Polycerasoidol" and "trans-δ-Tocotrienolic acid" derivatives as PPARα and/or PPARγ agonists” (Bioorg Med Chem, 2022).

As to `CCCOc1ccc2c(c1)CCC(C)(CC/C=C(\C)CC/C=C(\C)C(=O)OCC)O2` (stereo unspecified), in data set [1], the outcome was Active. Turning to `C/C(=C\CCC1(C)CCc2cc(OCc3ccccc3)ccc2O1)CCC(=O)Nc1ccccc1` (stereo unspecified), the outcome in data set [2] was Active. Further, in data set [1], the outcome was Active.

As for `CCOC(=O)CC/C(C)=C/CCC1(C)CCc2cc(OCc3ccccc3)ccc2O1` (stereo unspecified), the max activation in data set [2] was determined as 123%. For the same compound, the Emax at 24 h, 10 µM at PPARgamma came to 38%. As to `CCCOc1ccc2c(c1)CCC(C)(CC/C=C(\C)CC/C=C(\C)CC/C=C(\C)C(=O)OCC)O2` (stereo unspecified), in data set [2], the result was Active. Besides, the outcome in data set [1] was Active. As for `CCCOc1ccc2c(c1)CCC(C)(CC/C=C(\C)CCC(=O)Nc1ccccc1)O2` (stereo unspecified), in data set [2], the result was Active. Besides, the outcome in data set [1] was Active.

For the compound `C/C(=C\CC[C@]1(C)CCc2cc(O)cc(C)c2O1)CC/C=C(\C)C(=O)O`, the max activation in data set [2] turned out to be 107%. Besides, the Emax at 24 h, 10 µM at PPARgamma came to 95%. As to `CCCOc1ccc2c(c1)CCC(C)(CC/C=C(\C)CCC(=O)OCC)O2` (stereo unspecified), the outcome in data set [2] was Active. In addition, in data set [1], the outcome was Active. In the case of `CCCOc1ccc2c(c1)CCC(C)(CC/C=C(\C)CC/C=C(\C)CC/C=C(\C)C(=O)Nc1ccccc1)O2` (stereo unspecified), the result in data set [2] was Active. Also, the outcome in data set [1] was Active.

Turning to `C/C(=C\CCC1(C)CCc2cc(OCc3ccccc3)ccc2O1)CC/C=C(\C)C(=O)Nc1ccccc1` (stereo unspecified), in data set [3], the result was Active.
